Measurements taken from US20250129018A1, “PLEUROMUTILIN DERIVATIVES CONTAINING CYCLOALKYL GROUP AND PREPARATION METHODS AND APPLICATIONS THEREOF” (priority 2023, published 2025).
≈ marks a conversion by molar mass, not a printed value.

Key:
MRSA-337371 = assay: MIC, two-fold serial dilution method; format: cell-based, Methicillin-resistant Staphylococcus aureus; conditions: MRSA-337371
Method: (§1) The pleuromutilin derivatives 1-4 prepared from Example 9 of the present disclosure were determined for their effect on Methicillin-resistant Staphylococcus aureus, Methicillin-resistant Staphylococcus epidermidis, standard strains of Staphylococcus aureus (S. aureus-29213 and S. aureus-25923), clinical strains 1-48 of S. aureus, Escherichia coli, S. agalactiae and S. dysgalactiae equisimilis (S. dysgalactiae-1, S. dysgalactiae-2, S. dysgalactiae-3) and minimum inhibitory concentration (MIC) using a two-fold serial dilution method, and the results were shown in Table 1, Table 2 and Table 3. The standard strains are commercially available from ATCC, and the clinical strains are preserved by Lanzhou Institute of Husbandry and Pharmaceutical Science of Chinese Academy of Agricultural Sciences (Lanzhou, Gansu, China).

S. aureus-34 = assay: MIC, clinical strain; format: cell-based, Staphylococcus aureus
Method: as §1

S. aureus-22 = assay: MIC, clinical strain; format: cell-based, Staphylococcus aureus; conditions: in µg/mL
Method: as §1

S. aureus-10 = assay: MIC, clinical strain; format: cell-based, Staphylococcus aureus
Method: as §1

S. aureus-41 = assay: MIC, clinical strain; format: cell-based, Staphylococcus aureus
Method: as §1

S. aureus-36 = assay: MIC, clinical strain; format: cell-based, Staphylococcus aureus
Method: as §1

S. aureus-33 = assay: MIC, clinical strain; format: cell-based, Staphylococcus aureus
Method: as §1

S. aureus-28 = assay: MIC, clinical strain; format: cell-based, Staphylococcus aureus
Method: as §1

S. aureus-29 = assay: MIC, clinical strain; format: cell-based, Staphylococcus aureus
Method: as §1

S. aureus-19 = assay: MIC, clinical strain; format: cell-based, Staphylococcus aureus
Method: as §1

S. aureus-38 = assay: MIC, clinical strain; format: cell-based, Staphylococcus aureus
Method: as §1

S. aureus-47 = assay: MIC, clinical strain; format: cell-based, Staphylococcus aureus
Method: as §1

S. aureus-11 = assay: MIC, clinical strain; format: cell-based, Staphylococcus aureus
Method: as §1

S. aureus-23 = assay: MIC, clinical strain; format: cell-based, Staphylococcus aureus
Method: as §1

S. aureus-45 = assay: MIC, clinical strain; format: cell-based, Staphylococcus aureus
Method: as §1

S. aureus-15 = assay: MIC, clinical strain; format: cell-based, Staphylococcus aureus; conditions: in µg/mL
Method: as §1

S. aureus-9 = assay: MIC, clinical strain; format: cell-based, Staphylococcus aureus
Method: as §1

S. aureus-7 = assay: MIC, clinical strain; format: cell-based, Staphylococcus aureus
Method: as §1

S. aureus-21 = assay: MIC, clinical strain; format: cell-based, Staphylococcus aureus; conditions: in µg/mL
Method: as §1

S. aureus-12 = assay: MIC, clinical strain; format: cell-based, Staphylococcus aureus
Method: as §1

S. aureus-16 = assay: MIC, clinical strain; format: cell-based, Staphylococcus aureus
Method: as §1

S. aureus-20 = assay: MIC, clinical strain; format: cell-based, Staphylococcus aureus; conditions: in µg/mL
Method: as §1

S. aureus-40 = assay: MIC, clinical strain; format: cell-based, Staphylococcus aureus
Method: as §1

S. aureus-44 = assay: MIC, clinical strain; format: cell-based, Staphylococcus aureus
Method: as §1

S. aureus-1 = assay: MIC, clinical strain; format: cell-based, Staphylococcus aureus; conditions: in µg/mL
Method: as §1

S. aureus-32 = assay: MIC, clinical strain; format: cell-based, Staphylococcus aureus
Method: as §1

S. aureus-39 = assay: MIC, clinical strain; format: cell-based, Staphylococcus aureus
Method: as §1

S. aureus-6 = assay: MIC, clinical strain; format: cell-based, Staphylococcus aureus
Method: as §1

S. aureus-2 = assay: MIC, clinical strain; format: cell-based, Staphylococcus aureus
Method: as §1

S. aureus-24 = assay: MIC, clinical strain; format: cell-based, Staphylococcus aureus
Method: as §1

S. aureus-46 = assay: MIC, clinical strain; format: cell-based, Staphylococcus aureus
Method: as §1

S. aureus-5 = assay: MIC, clinical strain; format: cell-based, Staphylococcus aureus
Method: as §1

S. aureus-30 = assay: MIC, clinical strain; format: cell-based, Staphylococcus aureus
Method: as §1

S. aureus-37 = assay: MIC, clinical strain; format: cell-based, Staphylococcus aureus
Method: as §1

S. aureus-3 = assay: MIC, clinical strain; format: cell-based, Staphylococcus aureus
Method: as §1

S. aureus-25 = assay: MIC, clinical strain; format: cell-based, Staphylococcus aureus
Method: as §1

S. aureus-13 = assay: MIC, clinical strain; format: cell-based, Staphylococcus aureus; conditions: in µg/mL
Method: as §1

S. aureus-4 = assay: MIC, clinical strain; format: cell-based, Staphylococcus aureus
Method: as §1

S. aureus-42 = assay: MIC, clinical strain; format: cell-based, Staphylococcus aureus
Method: as §1

S. aureus-35 = assay: MIC, clinical strain; format: cell-based, Staphylococcus aureus
Method: as §1

S. aureus-29213 = assay: MIC, two-fold serial dilution method; format: cell-based, Staphylococcus aureus; conditions: S. aureus-29213
Method: as §1

S. aureus-25923 = assay: MIC, two-fold serial dilution method; format: cell-based, Staphylococcus aureus; conditions: S. aureus-25923
Method: as §1

With C=CC1(C)CC(OC(=O)CSC(C)(C)CNC(=O)C2CCC2)C2(C)C(C)CCC3(CCC(=O)C32)C(C)C1O (stereo not drawn) [derivative 2] the minimum inhibitory concentration (MRSA-337371) was 0.031 µg/mL (≈ 0.0566 µM), the “in vitro minimum inhibitory concentration” value (S. aureus-34) was 0.063 and the “in vitro minimum inhibitory concentration” value (S. aureus-22) was 0.063. The “in vitro minimum inhibitory concentration” value (S. aureus-10) was 0.063, the “in vitro minimum inhibitory concentration” value (S. aureus-41) was 0.031 and the “in vitro minimum inhibitory concentration” value (S. aureus-36) was 0.016. For the same compound, the “in vitro minimum inhibitory concentration” value (S. aureus-33) was 0.031, the “in vitro minimum inhibitory concentration” value (S. aureus-28) was 0.063 and the “in vitro minimum inhibitory concentration” value (S. aureus-29) was 0.031. For the same compound, the “in vitro minimum inhibitory concentration” value (S. aureus-19) was 0.125, the “in vitro minimum inhibitory concentration” value (S. aureus-38) was 0.016 and the “in vitro minimum inhibitory concentration” value (S. aureus-47) was 0.063. The “in vitro minimum inhibitory concentration” value (S. aureus-11) was 0.063, the “in vitro minimum inhibitory concentration” value (S. aureus-23) was 0.063 and the “in vitro minimum inhibitory concentration” value (S. aureus-45) was 0.125. For the same compound, the “in vitro minimum inhibitory concentration” value (S. aureus-15) was 0.031, the “in vitro minimum inhibitory concentration” value (S. aureus-9) was 0.063 and the “in vitro minimum inhibitory concentration” value (S. aureus-7) was 0.063. For the same compound, the “in vitro minimum inhibitory concentration” value (S. aureus-21) was 0.063, the “in vitro minimum inhibitory concentration” value (S. aureus-12) was 0.031 and the “in vitro minimum inhibitory concentration” value (S. aureus-16) was 0.031. For the same compound, the “in vitro minimum inhibitory concentration” value (S. aureus-20) was 0.063, the “in vitro minimum inhibitory concentration” value (S. aureus-40) was 0.016 and the “in vitro minimum inhibitory concentration” value (S. aureus-44) was 0.031. For the same compound, the “in vitro minimum inhibitory concentration” value (S. aureus-1) was 0.125, the “in vitro minimum inhibitory concentration” value (S. aureus-32) was 0.063 and the “in vitro minimum inhibitory concentration” value (S. aureus-39) was 0.016. For the same compound, the “in vitro minimum inhibitory concentration” value (S. aureus-6) was 0.031, the “in vitro minimum inhibitory concentration” value (S. aureus-2) was 0.063 and the “in vitro minimum inhibitory concentration” value (S. aureus-24) was 0.063. The “in vitro minimum inhibitory concentration” value (S. aureus-46) was 0.063, the “in vitro minimum inhibitory concentration” value (S. aureus-5) was 0.031 and the “in vitro minimum inhibitory concentration” value (S. aureus-30) was 0.031. For the same compound, the “in vitro minimum inhibitory concentration” value (S. aureus-37) was 0.063, the “in vitro minimum inhibitory concentration” value (S. aureus-3) was 0.031 and the “in vitro minimum inhibitory concentration” value (S. aureus-25) was 0.063. For the same compound, the “in vitro minimum inhibitory concentration” value (S. aureus-13) was 0.031, the “in vitro minimum inhibitory concentration” value (S. aureus-4) was 0.063 and the “in vitro minimum inhibitory concentration” value (S. aureus-42) was 0.063. The “in vitro minimum inhibitory concentration” value (S. aureus-35) was 0.125, the minimum inhibitory concentration (S. aureus-29213) was 0.063 µg/mL (≈ 0.115 µM) and the minimum inhibitory concentration (S. aureus-25923) was 0.031 µg/mL (≈ 0.0566 µM).
